Series [1] is described as follows: Conformational switching of oxidised CSP-3 to the reduced form, CD time scan at 222 nm. It is filed as physicochemical. The following applies: 20-fold excess (2 mM). The method, then:
The molar ellipticity at 222 nm was recorded. To induce the switch of the peptide from its oxidised to its reduced form a reducing agent for the disulphide bond was added. Two reducing agents were used for comparison, DTE and β-mercaptoethanol, in 20-fold excess (2 mM). […] The time taken to initiate the scan after addition of reducing agent was noted. […] A wavelength scan (190-260 nm) was run for each sample once the switch experiment was complete to record the spectrum of the reduced peptide. The data obtained from the time course reaction was analysed using the data analysis program Origin (v. 11) (see FIG. 5) A single exponential curve for a first order reaction has been fitted to the data from a switch experiment, using the data analysis program Origin. The equation for the curve is: y=Ae^−kt+B where A=amplitude of signal • B=[…] • k=rate constant • t=time […]

Series [2] is described as follows: Thermal unfolding followed by CD spectroscopy. It is filed as physicochemical. The following applies: comparator named in the value. As to the method:
(§1) Circular dichroism spectroscopy. CD measurements were made using a JASCO J-715 spectropolarimeter fitted with a Peltier temperature controller. Peptide solutions were prepared in 25 mM potassium phosphate buffer at pH 7 and were examined in 1 mm or 1 cm quartz cuvettes (with stirring). Spectra were recorded at 5° C. using 1 nm intervals, a 1 nm bandwidth and 4 sec response time. Thermal unfolding curves were recorded through 1° C. min^−1 ramps using a 2 nm bandwidth, averaging the signal for 16 s every 1° C. intervals. After baseline correction, ellipticities in mdeg were converted to molar ellipticities (deg cm^2 dmol-res-^−1) by normalising for the concentration of peptide bonds.

The nature of series [3]: Circular dichroism spectroscopy (helicity). The following applies: pH 7; comparator named in the value. It counts as physicochemical. As to the method:
as §1
(CD spectra are sensitive to the conformation of chiral molecules.)

Series [4] can be described thus: Sedimentation equilibrium analytical ultracentrifugation (monomer-dimer equilibrium). To be noted: monomer-dimer fit, 5° C., pH 7; read-out: KD (95% confidence limits). It is filed as physicochemical. As to the method: Sedimentation equilibrium experiments were conducted at 5° C. in a Beckman-Optima XL-I analytical ultracentrifuge fitted with an An-60 Ti rotor. A […] peptide solution at […] in 25 mM K phosphate buffer pH 7 containing 0.1 M KCl was equilibrated for 48 h at speeds of 40 000, 47 500/50 000 and 55 000/60 000 rpm. […] The molecular weights (Table 2) and partial specific volumes (range 0.7417 to 0.7461) of the peptides were calculated from their amino-acid sequences, and the viscosity of the buffer at 5° C. was taken to be […].

Series [5] concerns the molecule itself. In words: sedimentation equilibrium (AUC), self-association. As to the method: (§2) Sedimentation equilibrium experiments were conducted at 5° C. in a Beckman-Optima XL-I analytical ultracentrifuge fitted with an An-60 Ti rotor. A […] peptide solution at […] in 25 mM K phosphate buffer pH 7 containing 0.1 M KCl was equilibrated for 48 h at speeds of 40 000, 47 500/50 000 and 55 000/60 000 rpm. Data were fitted simultaneously assuming either a single ideal species or a monomer-dimer equilibrium and fixed monomer molecular weight, using routines in the Beckman-Optima XL-A/XLI-I data analysis software (v4.0). The molecular weights (Table 2) and partial specific volumes (range 0.7417 to 0.7461) of the peptides were calculated from their amino-acid sequences, and the viscosity of the buffer at 5° C. was taken to be […].

Series [6] concerns the molecule itself. In words: sedimentation equilibrium AUC, poor monomer-dimer fit, 5 C (homodimerisation). The method, then:
as §2
However, the reduced form of the peptide, CSP-2r, was only partially folded as judged from CD spectra (consistent with only ˜20% helix) (see FIG. 3A). […] (see FIG. 3B). […] The data fitted best assuming a single ideal species, and returned a molecular weight close to that expected for monomer (see Table 2). Fits to monomer-dimer were poor and gave weak dissociation constants in the 10-100 mM range.

Where a SMILES comes first, the peptide text is derived from it. Bridges are numbered along the chain shown (N, C = ends). Where no end group is shown, it is not given here. The star is where a group is joined. Cam = NC(=O)C*

What is called Kd is the free concentration of one partner at which half of the binding sites on the other are occupied at equilibrium, for simple one-to-one binding.

As for `CC[C@H](C)[C@@H]1NC(=O)[C@H](CCCCN)NC(=O)[C@H](CCC(N)=O)NC(=O)[C@H](CCC(=O)O)NC(=O)[C@H](CC(C)C)NC(=O)[C@H](C)NC(=O)[C@H](CCCNC(=N)N)NC(=O)[C@H]([C@@H](C)CC)NC(=O)[C@H](CCCCN)NC(=O)[C@H](C)NC(=O)[C@H](CCC(N)=O)NC(=O)[C@H](CCCCN)NC(=O)[C@H](C)NC(=O)[C@H](CCC(N)=O)NC(=O)[C@H](CCCCN)NC(=O)[C@H](CC(C)C)NC(=O)[C@H](CCCNC(=N)N)NC(=O)[C@H](C)NC(=O)[C@H]([C@@H](C)CC)NC(=O)[C@H](CCC(=O)O)NC(=O)[C@H](Cc2ccc(O)cc2)NC(=O)[C@H](CCCCN)NC(=O)[C@H](CC(C)C)NC(=O)[C@H](C)NC(=O)[C@H](CCCNC(=N)N)NC(=O)[C@H]([C@@H](C)CC)NC(=O)[C@H](CCC(=O)O)NC(=O)CNC(=O)CNC(=O)[C@@H](N)CSSC[C@@H](C(=O)O)NC(=O)CNC(=O)CNC(=O)[C@H](CCC(=O)O)NC(=O)[C@H](CC(C)C)NC(=O)[C@H](C)NC(=O)[C@H](C)NC1=O` [CSP-3o] (H-CGGEIRALKYEIARLKQAKQAKIRALEQKIAALEGGC-OH; disulfide 1-37; N-terminus and C-terminus assumed), the “time taken for reduction to complete” value amounted to 75 min in series [1] (with DTE) and 180 min in series [1] (with βME). Moreover, in series [2], the “thermal stability in words” value is “marginally improved helicity and thermal stability over CSP-2o”. The “helicity compared with other designs (CD signal at 222 nm)” value in series [3] is “marginally improved helicity and thermal stability over CSP-2o”.

Regarding “CGGEIRALKYEIARLKQ----KKRALEQKIAALEGGC [CSP-1r]”, the Kd in series [4] came out at 0.033 mM.

B1: CSP-2o (intra-molecularly oxidised) (peptide)
peptide: CGGEIRALKYEIARLKQGGGGKKRALEQKIAALEGGC
modifications: disulfide 1-37
notes: also called design iteration 2, oxidised; CSP-4o (Maya's nomenclature)
Turning to B1, the binding result in series [5] is listed as “no binding”.

B2: CSP-2r (reduced and alkylated) (peptide)
peptide: C(Cam)GGEIRALKYEIARLKQGGGGKKRALEQKIAALEGGC(Cam)
notes: CSP-1 with a tetraglycine insert; also called design iteration 2, reduced & alkylated; CSP-4a (Maya's nomenclature)
In series [6], B2 had an equilibrium dissociation constant (Kd) of 10 to 100 mM.

(Values after US20060240474A1, “Peptides able to switch between two structural states and their use” (UNIVERSITY OF SUSSEX, priority 2002, published 2006).)
